US7713979B2, “Cycloalkyl lactam derivatives as inhibitors of 11-beta-hydroxysteroid dehydrogenase 1” (Eli Lilly and Company, priority 2004, dated 2010)

Experiments:
[1] = molecular target: recombinant human 11β-HSD type 1 enzyme (Homo sapiens, UniProt P28845); assay: 11β-HSD type 1 enzyme assay (NADPH fluorescence); type: biochemical; settings: three hour incubation at room temperature
Method: 11β-HSD Type 1 Enzyme Assay Human 11β-HSD type 1 activity is measured by assaying NADPH production by fluorescence assay. Solid compounds are dissolved in DMSO to a concentration of 10 mM. Twenty microliters of each are then transferred to a column of a 96-well polypropylene Nunc plate where they are further diluted 50-fold followed by subsequent two-fold titration, ten times across the plate with additional DMSO using a Tecan Genesis 200 automated system. Plates are then transferred to a Tecan Freedom 200 system with an attached Tecan Temo 96-well head and an Ultra 384 plate reader. Reagents are supplied in 96-well polypropylene Nunc plates and are dispensed individually into black 96-well Molecular Devices High Efficiency assay plates (40 μL/well capacity) in the following fashion: 9 μL/well of substrate (2.22 mM NADP, 55.5 μM […], 10 mM Tris, 0.25% Prionex, 0.1% Triton X100), 3 μL/well of water to compound wells or 3 μL to control and standard wells, 6 μL/well recombinant human 11β-HSD type 1 enzyme, 2 μL/well of compound dilutions. For ultimate calculation of percent inhibition, a series of wells are added that represent assay minimum and maximum: one set containing substrate with 667 μM carbenoxolone (background), and another set containing substrate and enzyme without compound (maximum signal). Final DMSO concentration is 0.5% for all compounds, controls and standards. Plates are then placed on a shaker by the robotic arm of the Tecan for 15 seconds before being covered and stacked for a three hour incubation period at room temperature. Upon completion of this incubation, the Tecan robotic arm removes each plate individually from the stacker and places them in position for addition of 5 μL/well of a 250 μM carbenoxolone solution to stop the enzymatic reaction. Plates are then shaken once more for 15 seconds then placed into an Ultra 384 microplate reader (355EX/460EM) for detection of NADPH fluorescence.

[2] = system: cortisone to cortisol conversion (11β-HSD type 1); assay: Acute In Vivo Cortisone Conversion Assay; settings: mice dosed orally, subcutaneous cortisone challenge 30 mg/kg, serum cortisol by LC-MS/MS
Method: Acute In Vivo Cortisone Conversion Assay
In general, compounds are dosed orally into mice, the mice are challenged with a subcutaneous injection of cortisone at a set timepoint after compound injection, and the blood of each animal is collected some time later. Separated serum is then isolated and analyzed for levels of cortisone and cortisol by LC-MS/MS, followed by calculation of mean cortisol and percent inhibition of each dosing group. Specifically, male C57BL/6 mice are obtained from Harlan Sprague Dawley at average weight of 25 grams. Exact weights are taken upon arrival and the mice randomized into groups of similar weights. Compounds are prepared in 1% w-w HEC, 0.25% w-w polysorbate 80, 0.05% w-w Dow Coming antifoam #1510-US at various doses based on assumed average weight of 25 grams. Compounds are dosed orally, 200 μl per animal, followed by a subcutaneous dose, 200 μl per animal, of 30 mg/kg cortisone at 1 to 24 hours post compound dose. At 10 minutes post cortisone challenge, each animal is euthanized for 1 minute in a CO2 chamber, followed by blood collection via cardiac puncture into serum separator tubes. Once fully clotted, tubes are spun at 2500×g, 4° C. for 15 minutes, the serum transferred to wells of 96-well plates (Coming Inc, Costar #4410, cluster tubes, 1.2 ml, polypropylene), and the plates are frozen at −20° C. until analysis by LC-MS/MS. For analysis, serum samples are thawed and the proteins are precipitated by the addition of acetonitrile containing d4-cortisol internal standard. Samples are vortex mixed and centrifuged. The supernatant is removed and dried under a stream of warm nitrogen. Extracts are reconstituted in methanol/water (1:1) and injected onto the LC-MS/MS system. The levels of cortisone and cortisol are assayed by selective reaction monitoring mode following positive ACPI ionization on a triple quadrupole mass spectrophotometer. […] Examples 91, 135, 119, 15, and 99 were active in the Acute In Vivo Cortisone Conversion Assay.

Sequence of recombinant human 11β-HSD type 1 enzyme (P28845 whole entry): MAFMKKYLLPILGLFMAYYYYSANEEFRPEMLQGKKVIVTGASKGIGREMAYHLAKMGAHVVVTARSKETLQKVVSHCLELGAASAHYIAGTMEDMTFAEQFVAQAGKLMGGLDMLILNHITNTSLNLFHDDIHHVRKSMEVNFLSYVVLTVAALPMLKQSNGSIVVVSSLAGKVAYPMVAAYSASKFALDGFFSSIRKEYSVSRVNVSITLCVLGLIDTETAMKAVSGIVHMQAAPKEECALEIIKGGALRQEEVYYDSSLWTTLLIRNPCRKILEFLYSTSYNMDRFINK

O=C1C(Cc2ccc(-c3ccncc3)cc2Cl)CCN1C1CCCCC1 (centres unmarked)
IC50 [1]: 0.384 µM

CC1CCCCC1N1CCC(Cc2c(Cl)cc(-c3ccncc3)cc2Cl)C1=O (centres unmarked)
IC50 [1]: 0.565 µM

O=C1C(Cc2ccc(Cl)cc2Cl)CCN1C1CCC(O)CC1 (centres unmarked)
IC50 [1]: 0.378 µM

O=C1C(Cc2ccc(-c3cccnc3)cc2Cl)CCCN1C1CCCCC1 (centres unmarked)
IC50 [1]: 0.494 µM

O=C1C(Cc2c(F)cccc2Cl)CCCN1C1CCCCC1 (centres unmarked)
IC50 [1]: 0.879 µM

O=C1C(Cc2ccc(Cl)cc2Cl)CCN1[C@H]1CC[C@H](O)CC1 (relative stereo) [Example 15, 3-(2,4-Dichloro-benzyl)-1-(trans-4-hydroxy-cyclohexyl)-pyrrolidin-2-one]
activity in the Acute In Vivo Cortisone Conversion Assay [2]: active

CC1CCCCC1N1CCC(Cc2c(F)cccc2Cl)C1=O (centres unmarked) [Example 65]
activity in the Acute In Vivo Cortisone Conversion Assay [2]: inactive

COc1ccc(Cl)c(CC2CCN(C3CCCCC3)C2=O)c1Cl (centres unmarked) [Example 69]
activity in the Acute In Vivo Cortisone Conversion Assay [2]: inactive

Cl.O=C1C(Cc2ccc(-c3ccncc3)cc2Cl)CCN1C1CCCCC1 (centres unmarked) [Example 91]
activity in the Acute In Vivo Cortisone Conversion Assay [2]: active

CC1CCCCC1N1CCC(Cc2ccc(-c3cccnc3)cc2Cl)C1=O (centres unmarked) [Example 99]
activity in the Acute In Vivo Cortisone Conversion Assay [2]: active

CC1CCCCC1N1CCC(Cc2c(Cl)cc(-c3ccncc3)cc2Cl)C1=O.Cl (centres unmarked) [Example 119]
activity in the Acute In Vivo Cortisone Conversion Assay [2]: active

O=C1C(Cc2c(Cl)cc(Cl)cc2Cl)CCN1C1CCC(O)CC1 (centres unmarked) [Example 135]
activity in the Acute In Vivo Cortisone Conversion Assay [2]: active

O=C1C(Cc2c(Cl)cc(Cl)cc2Cl)CCN1C1CCC(O)CC1 (centres unmarked) [drawing 379]
IC50 [1]: 0.23 µM

CC1CCCCC1N1CCC(Cc2ccc(-c3cccnc3)cc2Cl)C1=O (centres unmarked) [drawing 383]
IC50 [1]: 0.273 µM
